The term MIC denotes the smallest concentration in the dilution series that meets the test's criterion for growth inhibition. Read a low MIC as greater potency.

≈ marks a conversion by molar mass, not a printed value. Where “and” joins values, the source holds several entries; their conditions need not be identical. Identical values can stand only once.

Data on eight compounds can be found in DBAASP.

What all share (test): ≥ marks a high value that may be exact or a test limit, other limits are often not marked, values filed in µg/mL are converted to µM
Experiment [1] has as its system Candida albicans NCYC 1467.
Experiment [2] has as its system Enterococcus faecalis NCTC 12697.
Experiment [3] has as its system Escherichia coli NCTC 10418.
Experiment [4] deals with Klebsiella pneumoniae ATCC 43816.
The test system of experiment [5] is Pseudomonas aeruginosa ATCC 27853.
The subject of experiment [6] is Staphylococcus aureus NCTC 10788.
The test system of experiment [7] is Staphylococcus aureus NCTC 12493.
Experiment [8] relates to Micrococcus luteus ATCC 49732.
The subject of experiment [9] is Candida albicans ATCC 10231.
For experiment [10], the system named is Escherichia coli ATCC 25922.
Experiment [11] relates to Pseudomonas aeruginosa ATCC 9027.
Experiment [12] deals with Staphylococcus aureus ATCC 29737.
Experiment [13] has as its system Staphylococcus epidermidis ATCC 12228.
The test system of experiment [14] is Candida albicans CGMCC 2.2086.
The test system of experiment [15] is Candida albicans.
Experiment [16] has as its system Candida parapsilosis CGMCC 2.3989.
For experiment [17], the system named is Candida tropicalis CGMCC 2.1975.
The test system of experiment [18] is Bacillus subtilis ATCC 23857.
The test system of experiment [19] is Klebsiella aerogenes ATCC 13048.
Experiment [20] deals with Acinetobacter baumannii ATCC 19606.
Experiment [21] deals with Candida albicans ATCC 90028.
In experiment [22] the test system is Cryptococcus neoformans ATCC 208821.
Experiment [23] deals with Klebsiella pneumoniae ATCC 700603.
For experiment [24], the system named is Staphylococcus aureus ATCC 43300.

Consider `CC[C@H](C)[C@H](NC(=O)[C@H](C)NC(=O)[C@H](CO)NC(=O)[C@@H](NC(=O)[C@@H](NC(=O)[C@H](CCCCN)NC(=O)[C@@H]1CCCN1C(=O)[C@@H](NC(=O)[C@H](CC(C)C)NC(=O)[C@H](CO)NC(=O)[C@H](CC(C)C)NC(=O)[C@@H](N)Cc1ccccc1)[C@@H](C)CC)[C@@H](C)CC)[C@@H](C)CC)C(=O)N[C@@H](CO)C(=O)N[C@@H](C)C(=O)N[C@@H](CC(C)C)C(=O)N[C@H](C(=O)N[C@@H](CC(N)=O)C(=O)N[C@@H](Cc1cnc[nH]1)C(=O)N[C@@H](Cc1ccccc1)C(N)=O)[C@@H](C)CC` [FLSLIPKIISAISALINHF], for which the MIC in experiment [1] was ≥ 32 µM; in experiment [2], ≥ 32 µM; in experiment [3] it was ≥ 512 µM; in [4], ≥ 512 µM; in experiment [5], > 512 µM; in experiment [6] it was 2 µM (≈ 4.19 µg/mL). Besides, the MIC in experiment [7] is ≥ 128 µM.
On to `CC[C@H](C)[C@H](NC(=O)[C@H](CO)NC(=O)[C@@H]1CCCN1C(=O)[C@H](CC(C)C)NC(=O)[C@H](CC(C)C)NC(=O)[C@H](CO)NC(=O)[C@H](CC(C)C)NC(=O)[C@@H](N)Cc1ccccc1)C(=O)N[C@H](C(=O)N[C@@H](CO)C(=O)NCC(=O)N[C@@H](C)C(=O)N[C@H](C(=O)N[C@@H](CO)C(=O)N[C@@H](CC(C)C)C(=O)N[C@@H](C)C(=O)N[C@@H](CCCCN)C(=O)N[C@@H](CCCCN)C(=O)N[C@@H](CC(C)C)C(N)=O)C(C)C)C(C)C` [FLSLLPSIVSGAVSLAKKL], for which, in experiment [8], the MIC is 1.3 µM (≈ 2.53 µg/mL).
For `CC(C)C[C@H](NC(=O)[C@H](CCC(N)=O)NC(=O)[C@H](CCC(N)=O)NC(=O)[C@H](C)NC(=O)CNC(=O)[C@H](C)NC(=O)[C@H](CCCCN)NC(=O)CNC(=O)[C@@H](NC(=O)[C@H](CCC(N)=O)NC(=O)[C@H](CCCCN)NC(=O)[C@H](CCCN=C(N)N)NC(=O)[C@H](CC(C)C)NC(=O)[C@H](Cc1ccc(O)cc1)NC(=O)[C@H](CCCCN)NC(=O)[C@H](C)NC(=O)CNC(=O)[C@H](C)NC(=O)[C@H](CCCCN)NC(=O)[C@H](Cc1ccccc1)NC(=O)[C@H](CC(C)C)NC(=O)[C@H](CO)NC(=O)[C@H](CO)NC(=O)[C@H](Cc1ccccc1)NC(=O)CN)C(C)C)C(N)=O` [GFSSLFKAGAKYLRKQVGKAGAQQL], the minimum inhibitory concentration (MIC) is ≥ 64 µM in [1]; 16 µM (≈ 42.5 µg/mL) in experiment [2]; 8 µM (≈ 21.2 µg/mL) in [3]; ≥ 128 µM in experiment [4]; 16 µM (≈ 42.5 µg/mL) in experiment [5]; 16 µM (≈ 42.5 µg/mL) in experiment [6]. In addition, the MIC in experiment [7] was ≥ 64 µM.
For the compound `CC(C)C[C@H](NC(=O)[C@H](C)NC(=O)CNC(=O)[C@H](CCCN=C(N)N)NC(=O)[C@H](CCCN=C(N)N)NC(=O)[C@H](CCCN=C(N)N)NC(=O)[C@H](CCC(N)=O)NC(=O)[C@H](CCCN=C(N)N)NC(=O)[C@H](CCCN=C(N)N)NC(=O)[C@H](CCCCN)NC(=O)[C@H](CCCCN)NC(=O)[C@H](CCCN=C(N)N)NC(=O)CN)C(=O)N[C@@H](Cc1c[nH]c2ccccc12)C(=O)N[C@@H](CCCCN)C(=O)N[C@@H](CO)C(=O)N[C@@H](CC(C)C)C(=O)N[C@@H](CC(C)C)C(=O)N[C@@H](CCCCN)C(=O)N[C@@H](CC(N)=O)C(=O)N[C@H](C(=O)NCC(=O)N[C@@H](CCCCN)C(=O)N[C@@H](C)C(N)=O)C(C)C` [GRKKRRQRRRGALWKSLLKNVGKA], the minimum inhibitory concentration (MIC) was 4 µM (≈ 11.4 µg/mL) in [1]; ≥ 32 µM in experiment [2]; 4 µM (≈ 11.4 µg/mL) in experiment [3]; ≥ 32 µM in [4]; 8 µM (≈ 22.9 µg/mL) in [5]; 8 µM (≈ 22.9 µg/mL) in experiment [6]. For the same compound, in experiment [7], the MIC turned out to be 16 µM (≈ 45.8 µg/mL).
With `CC[C@H](C)[C@H](N)C(=O)N[C@@H](CCCN=C(N)N)C(=O)N[C@H](C(=O)N[C@@H](CCCCN)C(=O)N[C@H](C(=O)N[C@@H](CCCN=C(N)N)C(=O)N[C@H](C(=O)N[C@@H](CCCCN)C(=O)N[C@H](C(=O)N[C@@H](CCCN=C(N)N)C(=O)N[C@H](C(=O)N[C@@H](CCCCN)C(N)=O)C(C)C)[C@@H](C)CC)C(C)C)[C@@H](C)CC)C(C)C` [IRVKIRVKIRVK], the MIC in experiment [9] stood at 82.9 µM (≈ 125 µg/mL); in experiment [10], 10.3 µM (≈ 15.6 µg/mL); in experiment [11] it was 41.4 µM (≈ 62.5 µg/mL); in experiment [12], 20.8 µM (≈ 31.3 µg/mL); in [13], 1.33 µM (≈ 2 µg/mL).
In the case of `CC[C@H](C)[C@H](NC(=O)CNC(=O)[C@H](CCCCN)NC(=O)[C@H](Cc1c[nH]c2ccccc12)NC(=O)[C@H](CC(C)C)NC(=O)[C@H](CC(C)C)NC(=O)[C@H](Cc1c[nH]c2ccccc12)NC(=O)[C@H](CCCCN)NC(=O)CNC(=O)[C@@H](NC(=O)[C@@H](N)CCCCN)[C@@H](C)CC)C(=O)N[C@@H](CCCCN)C(=O)N[C@@H](CCCCN)C(=O)N[C@H](C(=O)NCC(=O)N[C@@H](CCCCN)C(=O)N[C@@H](Cc1c[nH]c2ccccc12)C(=O)N[C@@H](CC(C)C)C(N)=O)[C@@H](C)CC` [KIGKWLLWKGIKKIGKWL], the minimal inhibitory concentration (MIC) in [14] was 4 µM (≈ 8.78 µg/mL); in [15] it was 5.66 µM and 4 µM; in experiment [16] it was 8 µM (≈ 17.6 µg/mL); in experiment [17], 2 µM (≈ 4.39 µg/mL).
`CC(C)C[C@H](NC(=O)[C@H](CC(C)C)NC(=O)[C@H](CCCCN)NC(=O)[C@H](CCCCN)NC(=O)[C@H](CC(C)C)NC(=O)[C@H](CC(C)C)NC(=O)[C@H](CCCCN)NC(=O)[C@H](CCCCN)NC(=O)[C@H](CC(C)C)NC(=O)[C@H](CC(C)C)NC(=O)[C@H](CCCCN)NC(=O)[C@H](CCCCN)NC(=O)[C@H](CC(C)C)NC(=O)[C@@H](N)CC(C)C)C(=O)N[C@@H](CCCCN)C(=O)N[C@@H](CCCCN)C(N)=O` [LLKKLLKKLLKKLLKK]: the minimum inhibitory concentration (MIC) in [18] was 4.07 µM (≈ 7.93 µg/mL); in [9], > 25.7 µM; in experiment [10], 6.41 µM (≈ 12.5 µg/mL); in experiment [19], 12.8 µM (≈ 25 µg/mL); in [11], 3.23 µM (≈ 6.3 µg/mL); in experiment [12] it was 25.7 µM (≈ 50 µg/mL).
For `NC(=O)C[C@H](N)C(=O)N[C@@H](Cc1cnc[nH]1)C(=O)N[C@@H](Cc1cnc[nH]1)C(=O)N[C@@H](CCCN=C(N)N)C(=O)N[C@@H](CCCN=C(N)N)C(=O)N[C@@H](Cc1cnc[nH]1)C(=O)N[C@@H](Cc1cnc[nH]1)C(=O)N[C@@H](CCCN=C(N)N)C(=O)N[C@@H](CS)C(=O)N[C@@H](CCCN=C(N)N)C(=O)O` [NHHRRHHRCR], the minimum inhibitory concentration (MIC) in experiment [20] is > 22.7 µM; in experiment [21], 22.7 µM (≈ 32 µg/mL); in [22], 22.7 µM (≈ 32 µg/mL); in [10], > 22.7 µM; in experiment [23], > 22.7 µM; in experiment [5], > 22.7 µM. The MIC in experiment [24] was > 22.7 µM.
